Measured values taken from ChEMBL document CHEMBL1140991, “Synthesis and testing of peptides for anti-prion activity” (Eur J Med Chem, 2008).
Peptide text beside a SMILES is read from it.

Columns and labels:
[1] = target: Major prion protein (Mus musculus) (UniProt P04925); assay: Inhibition of mouse recombinant PrP interaction with scrapie mouse brain PrP-res assessed as PrP-res formation at 100 uM after 30 mins by aggregation assay relative to control
[2] = system: brain; assay: Antiprion activity against Scrapie prion protein-infected mouse brain cells assessed as remaining PrP-res level at 10 uM after 4 days by Western blotting relative to control; format: tissue-based
[3] = system: brain; assay: Antiprion activity against Scrapie prion protein-infected mouse brain cells assessed as remaining PrP-res level at 100 uM after 4 days by Western blotting relative to control; format: tissue-based
[4] = target: Major prion protein (Mus musculus) (UniProt P04925); assay: Inhibition of manganese-induced aggregation in mouse recombinant PrP assessed as PrP-res formation at 100 uM after 30 mins relative to control; set-up: scale not given: the % may be the effect or the level left

Sequence of Major prion protein (Mus musculus) (P04925 whole entry): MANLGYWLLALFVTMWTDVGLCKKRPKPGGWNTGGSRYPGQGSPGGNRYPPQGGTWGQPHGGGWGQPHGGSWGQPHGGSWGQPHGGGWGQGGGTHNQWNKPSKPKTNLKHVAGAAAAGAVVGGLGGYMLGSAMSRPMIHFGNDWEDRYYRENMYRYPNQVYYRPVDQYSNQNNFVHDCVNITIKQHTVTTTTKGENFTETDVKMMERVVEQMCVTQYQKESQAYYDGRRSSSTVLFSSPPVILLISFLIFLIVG

Compound	PrP-res formation relative to control [1]	Remaining PrP-res level [2]	Activity [3]	Activity [4]
CC(C)[C@H](NC(=O)[C@@H](NC(=O)[C@H](C)NC(=O)CNC(=O)[C@@H]1CCCN1C(=O)[C@H](C)NC(=O)[C@H](C)NC(=O)[C@H](C)NC(=O)CNC(=O)[C@H](C)NC(=O)[C@@H](C)N)C(C)C)C(N)=O	52%	73%	5%	52%
CC(C)[C@H](NC(=O)[C@@H](NC(=O)[C@H](C)NC(=O)CNC(=O)[C@H](C)NC(=O)[C@H](C)NC(=O)[C@H](C)NC(=O)[C@H](C)NC(=O)[C@@H]1CCCN1C(=O)[C@H](C)NC(=O)[C@@H](C)N)C(C)C)C(N)=O	22%	131%	14%	22%
CC(C)[C@H](NC(=O)[C@H](C)NC(=O)CNC(=O)[C@@H]1CCCN1C(=O)[C@H](C)NC(=O)[C@H](C)NC(=O)[C@H](C)NC(=O)CNC(=O)[C@H](C)NC(=O)[C@@H](C)N)C(N)=O	–	–	129%	54%
CC(C)[C@H](NC(=O)[C@H](C)NC(=O)CNC(=O)[C@H](C)NC(=O)[C@H](C)NC(=O)[C@H](C)NC(=O)[C@H](C)NC(=O)[C@@H]1CCCN1C(=O)[C@H](C)NC(=O)[C@@H](C)N)C(N)=O	–	–	148%	28%
C[C@H](NC(=O)CNC(=O)[C@@H]1CCCN1C(=O)[C@H](C)NC(=O)[C@H](C)NC(=O)[C@H](C)NC(=O)CNC(=O)[C@@H]1CCCN1C(=O)[C@@H](C)N)C(N)=O	–	–	7%	89%
C[C@H](NC(=O)CNC(=O)[C@@H]1CCCN1C(=O)[C@H](C)NC(=O)[C@H](C)NC(=O)[C@H](C)NC(=O)CNC(=O)[C@H](C)NC(=O)[C@@H](C)N)C(N)=O	–	–	81%	27%
C[C@H](NC(=O)CNC(=O)[C@@H]1CCCN1C(=O)[C@H](C)NC(=O)[C@H](C)NC(=O)[C@H](C)NC(=O)[C@@H]1CCCN1C(=O)[C@H](C)NC(=O)[C@@H](C)N)C(N)=O	–	–	33%	85%
C[C@H](NC(=O)CNC(=O)[C@H](C)NC(=O)[C@@H](C)N)C(=O)N[C@@H](C)C(=O)N[C@@H](C)C(=O)N1CCC[C@H]1C(=O)NCC(=O)N1CCC[C@H]1C(N)=O	–	–	88%	27%
C[C@H](NC(=O)CNC(=O)[C@H](C)NC(=O)[C@@H](C)N)C(=O)N[C@@H](C)C(=O)N[C@@H](C)C(=O)N1CCC[C@H]1C(=O)NCC(N)=O	2%	–	108%	2%
C[C@H](NC(=O)CNC(=O)[C@H](C)NC(=O)[C@@H](C)N)C(=O)N[C@@H](C)C(=O)N[C@@H](C)C(=O)N1CCC[C@H]1C(N)=O	–	–	206%	–
C[C@H](NC(=O)CNC(=O)[C@H](C)NC(=O)[C@H](C)NC(=O)[C@H](C)NC(=O)[C@H](C)NC(=O)[C@@H]1CCCN1C(=O)[C@H](C)NC(=O)[C@@H](C)N)C(N)=O	–	–	66%	103%
C[C@H](NC(=O)[C@@H](C)N)C(=O)N1CCC[C@H]1C(=O)NCC(N)=O	–	–	100%	88%
C[C@H](NC(=O)[C@@H]1CCCN1C(=O)[C@@H](C)N)C(N)=O	–	–	45%	148%
C[C@H](NC(=O)[C@H](C)NC(=O)[C@H](C)NC(=O)[C@H](C)NC(=O)[C@@H]1CCCN1C(=O)[C@H](C)NC(=O)[C@@H](C)N)C(=O)NCC(N)=O	46%	–	128%	46%
C[C@H](NC(=O)[C@H](C)NC(=O)[C@H](C)NC(=O)[C@H](C)NC(=O)[C@@H]1CCCN1C(=O)[C@H](C)NC(=O)[C@@H](C)N)C(N)=O	2%	–	195%	2%
C[C@H](NC(=O)[C@@H]1CCCN1C(=O)[C@H](C)NC(=O)CN)C(=O)O (H-GAPA-OH)	–	–	47%	266%
C[C@H](NC(=O)CN)C(=O)N1CCC[C@H]1C(N)=O (H-Gly-Ala-Pro-NH2)	–	–	32%	111%
NCC(=O)N1CCC[C@H]1C(=O)N1CCC[C@H]1C(N)=O (H-Gly-Pro-Pro-NH2)	–	–	25%	81%
C[C@H](NC(=O)[C@H](C)NC(=O)[C@@H]1CCCN1)C(N)=O (H-Pro-Ala-Ala-NH2)	–	–	51%	88%
C[C@H](NC(=O)[C@@H]1CCCN1)C(=O)N1CCC[C@H]1C(N)=O (H-Pro-Ala-Pro-NH2)	–	–	156%	59%

Compound	PrP-res formation relative to control [1]	Remaining PrP-res level [2]	Activity [3]	Activity [4]
C[C@H](NC(=O)[C@@H]1CCCN1C(=O)[C@@H]1CCCN1)C(N)=O (H-Pro-Pro-Ala-NH2)	–	–	10%	125%
NC(=O)CNC(=O)[C@@H]1CCCN1C(=O)[C@@H]1CCCN1 (H-Pro-Pro-Gly-NH2)	–	–	48%	96%
H-AAGAAAA-NH2	–	–	65%	–
H-AAGAAAAG-NH2	23%	–	108%	23%
H-AAGAAAAGA-NH2	–	–	56%	76%
H-AAGAAAAGAV-NH2	–	–	133%	57%
H-AAGAAAAGAVV-NH2	17%	200%	34%	17%
H-GAAAPG-NH2	–	–	124%	111%
H-GAAAPP-NH2	–	–	30%	148%
H-GAAPPG-NH2	–	–	5%	240%
H-GAPAPG-NH2	–	–	52%	85%
H-GPAAPG-NH2	–	–	261%	48%
H-HAAGAAAAGA-NH2	–	–	39%	59%
H-HAAGAAAAGAV-NH2	–	–	74%	34%
H-HAAGAAAPGA-NH2	–	–	183%	28%
H-HAAGAAAPGAV-NH2	–	–	32%	64%
H-HAAPAAAAGA-NH2	–	–	151%	93%
H-HAAPAAAAGAV-NH2	–	–	225%	38%
H-HPAGAAAAGA-NH2	11%	–	23%	11%
H-HPAGAAAAGAV-NH2	–	–	135%	74%

Compound	PrP-res formation relative to control [1]	Remaining PrP-res level [2]	Activity [3]	Activity [4]
H-KHAAGAAAAGA-NH2	–	–	59%	102%
H-KHAAGAAAAGAVV-NH2	–	–	93%	112%
H-KHAAGAAAPGA-NH2	–	–	44%	52%
H-KHAAGAAAPGAVV-NH2	–	108%	7%	86%
H-KHAAPAAAAGA-NH2	–	–	70%	73%
H-KHAAPAAAAGAVV-NH2	44%	–	68%	44%
H-KHPAGAAAAGA-NH2	–	–	83%	19%
H-KHPAGAAAAGAVV-NH2	–	–	68%	73%
H-MAGAAAAGA-NH2	–	–	89%	104%
H-MLGSAPSR-NH2	–	–	61%	1%
H-PAGAAAA-NH2	–	–	71%	–
H-PAGAAAAG-NH2	–	158%	10%	130%
H-PAGAAAAGA-NH2	–	–	100%	71%
H-PAGAAAAGAV-NH2	–	–	112%	77%
H-PAGAAAAGAVV-NH2	28%	–	132%	28%
H-PAGAAAPGA-NH2	–	–	79%	56%
H-PLGSAMSR-NH2	–	–	45%	11%
H-VAGAAAAGA-NH2	–	–	93%	84%
